Data on one molecule can be found in PMC3694426 (Clinical cancer research : an official journal of the …, 2013).

What is called half-life is the time in which the quantity being followed falls by half. What is called Tmax is the time from dosing to the highest level.

Each structure is given as a SMILES string. Marks after values point to notes of the source that are not given here.

One series deals with SCLC tumors. The following applies: cited from earlier work.
Series [1] is described as follows: plasma pharmacokinetics in patients. Type of series: in vivo, human. The following applies: for CL/F: day 22 of cycle 1, plasma, arithmetic mean (CV%); for half-life: in vivo.
Series [2] concerns B837Tx medulloblastoma allograft. The following applies: oral administration; cited from earlier work.

With `CC1=C2C[C@H]3[C@@H](CC[C@@H]4C[C@H](NS(C)(=O)=O)CC[C@@]43C)[C@@H]2CC[C@@]2(C1)O[C@@H]1C[C@H](C)CN[C@H]1[C@H]2C` [IPI-926], in the series on SCLC tumors, the “regrowth of SCLC tumors following chemotherapy” value is given as “delays regrowth”. In addition, the CL/F in series [1] (20 mg QD oral (n = 1)) was 111 (NC) L/h; in series [1] (30 mg QD oral (n = 1)), 59.0 (NC) L/h; in series [1] (40 mg QD oral (n = 1)), 50.0 (NC) L/h; in series [1] (60 mg QD oral (n = 1)), 28.6 (NC) L/h; in series [1] (130 mg QD oral, n = 4), 23.0 (36.0) ^b L/h; in series [1] (160 mg QD oral (n = 4)) it was 21.2 (38.5) L/h. The CL/F in series [1] (180 mg QD oral (n = 1)) is on record as 14.0 (NC) L/h; in series [1] (200 mg QD oral (n = 1)) it was 13.3 (NC) L/h; in series [1] (210 mg QD oral (n = 5)), 20.6 (35.5) L/h. The “mean oral clearance (CL/F)” value in series [1] (130-mg dose level, expanded phases) stood at 27.4 L/h; in series [1] (160-mg dose level, expanded phases) it was 20.1 L/h. The half-life in series [1] (human, po) is 1200 to 2400 min; in series [1] (human, po, 130 mg) it was 1160 min; in series [1] (human, po, 160 mg), 1040 min; in series [1] (human, po, 180 mg), 966 min; in series [1] (human, po, 200 mg), 762 min. Further, the Tmax in series [1] (human, plasma, po, Tmax (slow absorption), overall summary, patients) lay in the range of 2 to 8 h. For the same molecule, the “dose dependence of mean AUC0–24 and Cmax” value in series [1] (single and multiple doses of 130 to 160 mg, expanded phases) is listed as “dose-proportional manner”. In series [2], the “inhibition of HhP activity (downregulation of Gli1 mRNA)” value was “dose-dependent inhibition of HhP activity”. Moreover, the “survival of mice bearing orthotopically implanted tumors” value in series [2] is recorded as “significant prolongation of survival”.
